Measurements from patent US20250296971A1, “GASTRIC INHIBITORY PEPTIDE RECEPTOR LIGANDS” (priority 2021, published 2025).
Read-outs that look alike come from different tables or passages of the source. *1 amine or outer side, *2 acyl side, *3 side chain or, on linkers, in order; H or OH if unused. Where a SMILES comes first, the peptide text is derived from it. Bridges are numbered along the chain shown (N, C = ends). Side-chain parts run from the residue outwards. [ ]: non-standard residue; d: D form. The star is where a group is joined. NH(1-deoxy-D-glucityl) = OC[C@@H](O)[C@@H](O)[C@H](O)[C@@H](O)CN*; DOTA = O=C(O)CN1CCN(CC(=O)O)CCN(CC(=O)*)CCN(CC(=O)O)CC1; Trp(5-Cl) = N[C@@H](Cc1c[nH]c2ccc(Cl)cc12)C(=O)O; Pyridine(2,6-diCH2) = c1cc(C[*:1])nc(C[*:2])c1; mXylylene = c1cc(C[*:1])cc(C[*:2])c1; Glutaryl = O=C(CCCC(=O)[*:2])[*:1]; Hyp = O=C(O)[C@@H]1C[C@@H](O)CN1; X1 = O=C(CN1CCC(N[*:1])CC1)[*:2]; Api = NC1(C(=O)O)CCNCC1

How the values were obtained:
[1] = target: Recombinant soluble human NEP (Homo sapiens, UniProt P08473); assay: Proteolytic stability assay against NEP; settings: NEP 100 ng/mL, compound 10 μM, 37° C., % intact compound remaining
[2] = target: T1, GIPR (CHO-K1-hGIPR cells) (Homo sapiens, UniProt P48546); assay: FACS binding assay
T1 construct: host or cells: CHO-K1
T1 sequence (P48546 22-466): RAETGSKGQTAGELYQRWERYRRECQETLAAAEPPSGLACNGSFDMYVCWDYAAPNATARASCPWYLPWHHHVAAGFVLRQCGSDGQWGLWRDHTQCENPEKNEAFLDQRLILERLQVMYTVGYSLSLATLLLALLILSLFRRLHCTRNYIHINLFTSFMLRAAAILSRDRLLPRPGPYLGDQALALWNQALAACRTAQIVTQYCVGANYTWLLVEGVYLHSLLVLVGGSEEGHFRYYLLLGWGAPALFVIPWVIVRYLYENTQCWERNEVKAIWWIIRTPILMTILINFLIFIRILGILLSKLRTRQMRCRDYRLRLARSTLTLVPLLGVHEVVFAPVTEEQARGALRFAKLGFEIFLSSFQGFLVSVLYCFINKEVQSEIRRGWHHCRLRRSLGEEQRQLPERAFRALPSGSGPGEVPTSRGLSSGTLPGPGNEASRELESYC
Procedure, shortened: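 Steps: detach CHO-K1-hGIPR cells (Accutase); wash in PBS/1% FCS; adjust to 500.000 cells per mL; wash ice-cold; incubate APC-streptavidin 1 μg/mL, 30 min on ice; wash twice; acquire on flow cytometer; fit MFI-concentration data with a four-parameter logistic model.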

[3] = Plasma stability assay, human plasma; type: in vitro ADME; settings: 37° C., % intact compound remaining after 4 h or 24 h
Method: (§1) In order to determine the stability of selected compounds of the invention in human and mouse plasma, a plasma stability assay was carried out. Such plasma stability assay measures degradation of compounds of the present invention in blood plasma. This is an important characteristic of a compound as compounds, with the exception of pro-drugs, which rapidly degrade in plasma, generally show poor in vivo efficacy. […] The stability is sufficient for the diagnostic, therapeutic and theragnostic use of these compounds according to the present invention.
(§2) The plasma stability samples were prepared by spiking 50 μL plasma aliquots (all K2EDTA) with 1 μL of a 0.5 mM compound stock solution in DMS0. After vortexing the samples were incubated in a Thermomixer at 37° C. for 0, 4 and 24 hours. After incubation the samples were stored on ice until further treatment. All samples were prepared in duplicates.
(§3) A suitable internal standard was added to each sample (1 μL of a 0.5 mM stock solution in DMSO). Protein precipitation was performed by addition of 250 μL of acetonitrile containing 1% trifluoroacetic acid. After incubation at room temperature for 30 min the precipitate was separated by centrifugation and 150 μL of the supernatant was diluted with 150 μL of 1% aqueous formic acid.
(§4) Additionally, recovery was determined by spiking a pure plasma sample that only contained the internal standard after treatment with a certain amount of the compound.
(§5) Carry-over was evaluated by analysis of a blank sample (20% acetonitrile) after the highest calibration sample.

[4] = Plasma stability assay, mouse plasma; type: in vitro ADME; settings: 37° C., % intact compound remaining after 4 h or 24 h
Method: as §1, §2, §3, §4, §5

[5] = competition with 20 nM GIP-057, 4° C., 1 hour, read-out: pIC50 Category (converted)
[6] = competition with 20 nM GIP-057, 4° C. for 1 hour, read-out: pIC50 Category (converted)

Recombinant soluble human NEP, sequence (P08473 52-750 limits assumed): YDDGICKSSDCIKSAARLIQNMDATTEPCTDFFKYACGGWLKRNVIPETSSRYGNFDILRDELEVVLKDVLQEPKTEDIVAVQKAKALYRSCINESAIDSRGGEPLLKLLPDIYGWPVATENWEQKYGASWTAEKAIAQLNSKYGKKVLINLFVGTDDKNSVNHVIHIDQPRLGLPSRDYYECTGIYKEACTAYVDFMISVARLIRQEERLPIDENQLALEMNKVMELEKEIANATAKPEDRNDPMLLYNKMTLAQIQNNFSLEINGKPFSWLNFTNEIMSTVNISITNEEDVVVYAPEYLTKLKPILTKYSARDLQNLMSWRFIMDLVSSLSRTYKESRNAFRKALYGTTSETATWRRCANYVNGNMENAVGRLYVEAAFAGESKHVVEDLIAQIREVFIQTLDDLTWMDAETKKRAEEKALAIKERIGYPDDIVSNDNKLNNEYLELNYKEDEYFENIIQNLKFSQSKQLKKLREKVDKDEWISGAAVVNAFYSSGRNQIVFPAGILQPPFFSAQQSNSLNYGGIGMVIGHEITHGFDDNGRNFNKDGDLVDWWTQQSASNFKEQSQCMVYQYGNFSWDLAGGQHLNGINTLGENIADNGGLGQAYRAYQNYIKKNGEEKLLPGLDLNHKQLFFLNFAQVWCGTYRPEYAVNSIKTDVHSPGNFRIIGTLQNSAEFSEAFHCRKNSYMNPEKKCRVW

| IC50 [2, 5] | Human plasma stability category [3] | Mouse plasma stability category [4] | IC50 [2, 6] | Structure (SMILES) | NEP stability category [1] | IC50 ([2]; pIC50 Category, competition with 20 nM GIP-057, 4° C., 1 hour) |
| --- | --- | --- | --- | --- | --- | --- |
| < 0.01 µM | – | – | – | CC[C@H](C)[C@@H]1NC(=O)[C@H](CC(C)C)NC(=O)C2(CCN(C(=O)CCCC(=O)NC[C@H](O)[C@@H](O)[C@H](O)[C@H](O)CO)CC2)NC(=O)[C@@H](NC(=O)[C@@H](CC(C)C)NC(=O)[C@H](CCC(=O)O)NC(=O)[C@@H]2C[C@@H](O)CN2C(=O)[C@H](Cc2c[nH]c3ccc(Cl)cc23)NC(=O)[C@H](Cc2c[nH]c3ccccc23)NC(=O)[C@H](CC(=O)O)NC(=O)CN2CCC(NC(=O)[C@@H](CCC(=O)NC[C@H](O)[C@@H](O)[C@H](O)[C@H](O)CO)NC(=O)CN3CCN(CC(=O)O)CCN(CC(=O)O)CCN(CC(=O)O)CC3)CC2)CSCc2cccc(n2)CSC[C@@H](C(=O)NC2CCN(CC(=O)N[C@H](CCC(=O)NC[C@H](O)[C@@H](O)[C@H](O)[C@H](O)CO)C(N)=O)CC2)NC1=O [GIP-003, DOTA-glu(AGLU)-APAc-Asp-Trp-5Clw-Hyp-Glu-leu-[Cys(2Lut)-Apc(AGLU-Glutar)-Leu-Ile-Cys]-APAc-glu(AGLU)-NH2] ({DOTA}-[dE](NH(1-deoxy-D-glucityl))[X1]DW[Trp(5-Cl)][Hyp]E[dL]C[Api]([Glutaryl-NH(1-deoxy-D-glucityl)])LIC[X1][dE](NH(1-deoxy-D-glucityl))-NH2; linker 9-13 via Pyridine(2,6-diCH2)) | A (>80% intact after 24 hours) | – |
| – | – | – | – | CC[C@H](C)[C@@H]1NC(=O)[C@H](CC(C)C)NC(=O)C2(CCN(C(=O)CN3CCN(CC(=O)O)CCN(CC(=O)O)CCN(CC(=O)O)CC3)CC2)NC(=O)[C@@H](NC(=O)[C@@H](CC(C)C)NC(=O)[C@H](CCC(=O)O)NC(=O)[C@@H]2C[C@@H](O)CN2C(=O)[C@H](Cc2c[nH]c3ccc(Cl)cc23)NC(=O)[C@H](Cc2c[nH]c3ccccc23)NC(=O)[C@H](CC(=O)O)NC(=O)CN2CCC(NC(=O)CCOCCOCCOCCOCCOCCOCCOCCOCCOCCOCCOCCOCCOCCOCCOCCOCCOCCOCCOCCOCCOCCOCCOCCOCCOCCOCCOCCOCCOCCOCCOCCOCCOCCOCCOCCOCCOC)CC2)CSCc2cccc(n2)CSC[C@@H](C(=O)N[C@H](CCC(=O)NC[C@H](O)[C@@H](O)[C@H](O)[C@H](O)CO)C(N)=O)NC1=O [GIP-040, Me036PEG-APAc-Asp-Trp-5Clw-Hyp-Glu-leu-[Cys(2Lut)-Apc(DOTA)-Leu-Ile-Cys]-glu(AGLU)-NH2] | A (>80% intact after 24 hours) | 0.01 to 0.0794 µM |
| 0.01 to 0.0794 µM | B (>80% intact after 4 hours) | B (>80% intact after 4 hours) | – | CC[C@H](C)[C@@H]1NC(=O)[C@H](CC(C)C)NC(=O)[C@H](C)NC(=O)[C@@H](NC(=O)[C@H](CC(C)C)NC(=O)[C@H](CCC(=O)O)NC(=O)[C@@H]2CCCN2C(=O)[C@H](Cc2c[nH]c3ccccc23)NC(=O)[C@H](Cc2c[nH]c3ccccc23)NC(=O)[C@H](CC(=O)O)NC(=O)[C@H](Cc2ccc(O)cc2)NC(C)=O)CSCc2cccc(c2)CSC[C@@H](C(N)=O)NC1=O [GIP-240, Ac-Tyr-Asp-Trp-Trp-Pro-Glu-Leu-[Cys(3MeBn)-Ala-Leu-Ile-Cys]-NH2] (Ac-YDWWPELCALIC-NH2; linker 8-12 via mXylylene) | – | – |
| 0.01 to 0.0794 µM | B (>80% intact after 4 hours) | C (≥50% intact after 4 hours) | – | CC[C@H](C)[C@@H]1NC(=O)[C@H](CC(C)C)NC(=O)[C@H](CCC(N)=O)NC(=O)[C@@H](NC(=O)[C@H](CC(C)C)NC(=O)[C@H](CCC(=O)O)NC(=O)[C@@H]2CCCN2C(=O)[C@H](Cc2c[nH]c3ccccc23)NC(=O)[C@H](Cc2c[nH]c3ccccc23)NC(=O)[C@H](CC(=O)O)NC(=O)[C@H](Cc2ccc(O)cc2)NC(=O)[C@@H](N)CCSC)CSCc2cccc(c2)CSC[C@@H](C(N)=O)NC1=O [GIP-241] (H-MYDWWPELCQLIC-NH2; linker 9-13 via mXylylene) | – | – |
| 0.01 to 0.0794 µM | B (>80% intact after 4 hours) | C (≥50% intact after 4 hours) | – | CC[C@H](C)[C@@H]1NC(=O)[C@H](CC(C)C)NC(=O)[C@H]([C@@H](C)O)NC(=O)[C@@H](NC(=O)[C@H](CC(C)C)NC(=O)[C@H](CCC(=O)O)NC(=O)[C@@H]2CCCN2C(=O)[C@H](Cc2c[nH]c3ccccc23)NC(=O)[C@H](Cc2c[nH]c3ccccc23)NC(=O)[C@H](CC(=O)O)NC(=O)[C@H](Cc2ccc(O)cc2)NC(=O)[C@@H](N)CCSC)CSCc2cccc(c2)CSC[C@@H](C(N)=O)NC1=O [GIP-242] (H-MYDWWPELCTLIC-NH2; linker 9-13 via mXylylene) | – | – |
| – | B (>80% intact after 4 hours) | D (<50% intact after 4 hours) | 0.01 to 0.0794 µM | CC[C@H](C)[C@@H]1NC(=O)[C@H](CC(C)C)NC(=O)[C@H](C)NC(=O)[C@@H](NC(=O)[C@H](CC(C)C)NC(=O)[C@@H](CCC(=O)O)NC(=O)[C@@H]2CCCN2C(=O)[C@H](Cc2c[nH]c3ccccc23)NC(=O)[C@H](Cc2c[nH]c3ccccc23)NC(=O)[C@H](CC(=O)O)NC(=O)[C@H](Cc2ccc(O)cc2)NC(=O)[C@@H](N)CCSC)CSCc2cccc(c2)CSC[C@@H](C(N)=O)NC1=O [GIP-245, H-Met-Tyr-Asp-Trp-Trp-Pro-glu-Leu-[Cys(3MeBn)-Ala-Leu-Ile-Cys]-NH2] (H-MYDWWP[dE]LCALIC-NH2; linker 9-13 via mXylylene) | – | – |
| – | B (>80% intact after 4 hours) | B (>80% intact after 4 hours) | 0.01 to 0.0794 µM | CC[C@H](C)[C@@H]1NC(=O)[C@H](CC(C)C)NC(=O)[C@H](C)NC(=O)[C@@H](NC(=O)[C@H](CC(C)C)NC(=O)[C@H](CCC(=O)O)NC(=O)[C@@H]2CCCN2C(=O)[C@H](Cc2c[nH]c3ccccc23)NC(=O)[C@H](Cc2c[nH]c3ccccc23)NC(=O)[C@H](CC(=O)O)NC(=O)[C@@H](Cc2ccc(O)cc2)NC(=O)[C@@H](N)CCSC)CSCc2cccc(c2)CSC[C@@H](C(N)=O)NC1=O [GIP-246, H-Met-tyr-Asp-Trp-Trp-Pro-Glu-Leu-[Cys(3MeBn)-Ala-Leu-Ile-Cys]-NH2] (H-M[dY]DWWPELCALIC-NH2; linker 9-13 via mXylylene) | – | – |
| – | C (≥50% intact after 4 hours) | D (<50% intact after 4 hours) | 0.01 to 0.0794 µM | CC[C@H](C)[C@@H]1NC(=O)[C@H](CC(C)C)NC(=O)[C@H](C)NC(=O)[C@@H](NC(=O)[C@@H](CC(C)C)NC(=O)[C@H](CCC(=O)O)NC(=O)[C@@H]2CCCN2C(=O)[C@H](Cc2c[nH]c3ccccc23)NC(=O)[C@H](Cc2c[nH]c3ccccc23)NC(=O)[C@H](CC(=O)O)NC(=O)[C@H](Cc2ccc(O)cc2)NC(=O)[C@@H](N)CCSC)CSCc2cccc(c2)CSC[C@@H](C(N)=O)NC1=O [GIP-247, H-Met-Tyr-Asp-Trp-Trp-Pro-Glu-leu-[Cys(3MeBn)-Ala-Leu-Ile-Cys]-NH2] (H-MYDWWPE[dL]CALIC-NH2; linker 9-13 via mXylylene) | – | – |
| – | B (>80% intact after 4 hours) | D (<50% intact after 4 hours) | 0.01 to 0.0794 µM | CC[C@H](C)[C@@H]1NC(=O)[C@H](CC(C)C)NC(=O)[C@@H](C)NC(=O)[C@@H](NC(=O)[C@H](CC(C)C)NC(=O)[C@H](CCC(=O)O)NC(=O)[C@@H]2CCCN2C(=O)[C@H](Cc2c[nH]c3ccccc23)NC(=O)[C@H](Cc2c[nH]c3ccccc23)NC(=O)[C@H](CC(=O)O)NC(=O)[C@H](Cc2ccc(O)cc2)NC(=O)[C@@H](N)CCSC)CSCc2cccc(c2)CSC[C@@H](C(N)=O)NC1=O [GIP-248] (H-MYDWWPELC[dA]LIC-NH2; linker 9-13 via mXylylene) | – | – |
